Tests used:
[1] = molecular target: T1, P2Y purinoceptor 14 (Homo sapiens) (UniProt Q15391); assay: Agonist activity at human P2Y14 receptor expressed in […] cells at 10 uM; assay type: functional, cell-based; settings: COS-7
T1 sequence (whole entry): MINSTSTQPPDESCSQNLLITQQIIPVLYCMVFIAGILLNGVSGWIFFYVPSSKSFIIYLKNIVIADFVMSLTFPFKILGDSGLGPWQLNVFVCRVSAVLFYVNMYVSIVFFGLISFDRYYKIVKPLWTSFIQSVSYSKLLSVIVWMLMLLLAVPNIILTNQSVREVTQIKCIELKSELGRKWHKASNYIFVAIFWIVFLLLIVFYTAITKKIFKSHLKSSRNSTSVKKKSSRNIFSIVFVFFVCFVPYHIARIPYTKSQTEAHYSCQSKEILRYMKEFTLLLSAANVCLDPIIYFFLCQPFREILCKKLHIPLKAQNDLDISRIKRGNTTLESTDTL

P2Y purinoceptor 14 = molecular target: T2, P2Y purinoceptor 14 (Homo sapiens, UniProt Q15391); assay: Agonist activity at human P2Y14 receptor expressed in […] cells; assay type: functional, cell-based, COS-7
T2 sequence (Q15391 whole entry): T1 sequence (whole entry)

| SMILES | Efficacy [1] [%] | EC50 (P2Y purinoceptor 14) [nM] |
| --- | --- | --- |
| O=c1ccn([C@@H]2C[C@H](COP(=O)(O)OP(=O)(O)O[C@H]3O[C@H](CO)[C@@H](O)[C@H](O)[C@H]3O)[C@@H](O)[C@H]2O)c(=O)[nH]1 | < 20 |  |
| O=c1ccn([C@@H]2O[C@H](COP(=O)(O)OP(=O)(O)O[C@H]3O[C@H](CO)[C@@H](O)[C@H](O)[C@H]3F)[C@@H](O)[C@H]2O)c(=O)[nH]1 |  | 2500 |
| O=c1ccn([C@@H]2O[C@H](COP(=O)(O)OP(=O)(O)OC[C@H]3O[C@H](O)[C@H](O)[C@@H](O)[C@@H]3O)[C@@H](O)[C@H]2O)c(=O)[nH]1 |  | 373 |
| CC(C)(C)OC(=O)NCCNC(=O)[C@H]1O[C@H](OP(=O)(O)OP(=O)(O)OC[C@H]2O[C@@H](n3ccc(=O)[nH]c3=O)[C@H](O)[C@@H]2O)[C@H](O)[C@@H](O)[C@@H]1O |  | 951 |
| O=c1ccn([C@@H]2O[C@H](COP(=O)(O)OP(=O)(O)OC[C@H]3O[C@H](O)[C@@H](O)[C@@H]3O)[C@@H](O)[C@H]2O)c(=O)[nH]1 |  | 460 |
| O=c1ccn([C@@H]2O[C@H](COP(=O)(O)OP(=O)(O)O[C@@H]3[C@H](O)[C@H](O)[C@@H](O)[C@H](O)[C@H]3O)[C@@H](O)[C@H]2O)c(=O)[nH]1 |  | 1880 |
| O=c1ccn([C@@H]2O[C@H](COP(=O)(O)OP(=O)(O)OC[C@H]3O[C@H](O)C[C@@H](O)[C@@H]3O)[C@@H](O)[C@H]2O)c(=O)[nH]1 | < 50 |  |
| O=c1ccn([C@@H]2O[C@H](COP(=O)(O)OP(=O)(O)OC[C@H]3O[C@](O)(CO)[C@@H](O)[C@@H]3O)[C@@H](O)[C@H]2O)c(=O)[nH]1 |  | 323 |
| O=c1ccn([C@@H]2O[C@H](COP(=O)(O)OP(=O)(O)OC[C@H]3O[C@H](O)[C@@H](O)[C@@H](O)[C@@H]3O)[C@@H](O)[C@H]2O)c(=O)[nH]1 |  | 658 |
| C[C@H]1O[C@H](OP(=O)(O)OP(=O)(O)OC[C@H]2O[C@@H](n3ccc(=O)[nH]c3=O)[C@H](O)[C@@H]2O)[C@H](O)[C@@H](O)[C@H]1O |  | 562 |
| CC(=O)N[C@@H]1[C@@H](O)[C@H](O)[C@@H](CO)O[C@@H]1CP(=O)(O)OP(=O)(O)OC[C@H]1O[C@@H](n2ccc(=O)[nH]c2=O)[C@H](O)[C@@H]1O | < 50 |  |
| O=c1ccn([C@@H]2O[C@H](COP(=O)(O)OP(=O)(O)O[C@H]3O[C@H](CO)[C@@H](F)[C@H](O)[C@H]3O)[C@@H](O)[C@H]2O)c(=O)[nH]1 |  | 567 |
| O=c1ccn([C@@H]2O[C@H](COP(=O)(O)OP(=O)(O)OC[C@H]3O[C@H](O)[C@H](O)[C@@H]3O)[C@@H](O)[C@H]2O)c(=O)[nH]1 |  | 238 |
| CO/N=c1/ccn([C@@H]2O[C@H](COP(=O)(O)OP(=O)(O)O[C@H]3O[C@H](CO)[C@@H](O)[C@H](O)[C@H]3O)[C@@H](O)[C@H]2O)c(=O)[nH]1 | < 50 |  |
| O=c1ccn([C@@H]2O[C@H](COP(=O)(O)OP(=O)(O)O[C@H]3O[C@H](CO)[C@@H](O)[C@H](F)[C@H]3O)[C@@H](O)[C@H]2O)c(=O)[nH]1 |  | 361 |
| O=c1[nH]c(=S)ccn1[C@@H]1O[C@H](COP(=O)(O)OP(=O)(O)O[C@H]2O[C@H](CO)[C@@H](O)[C@H](O)[C@H]2O)[C@@H](O)[C@H]1O |  | 290 |
| O=c1ccn([C@@H]2O[C@H](COP(=O)(O)OP(=O)(O)O[C@H]3O[C@H](CF)[C@@H](O)[C@H](O)[C@H]3O)[C@@H](O)[C@H]2O)c(=O)[nH]1 |  | 905 |
| CC(=O)NCCNC(=O)[C@H]1O[C@H](OP(=O)(O)OP(=O)(O)OC[C@H]2O[C@@H](n3ccc(=O)[nH]c3=O)[C@H](O)[C@@H]2O)[C@H](O)[C@@H](O)[C@@H]1O |  | 496 |

Source: ChEMBL document CHEMBL1152500, “Molecular recognition in the P2Y(14) receptor: Probing the structurally permissive terminal sugar moiety of uridine-5'-diphosphoglucose” (Bioorg Med Chem, 2009)
